The record followed here is US7189720B2 (H. Lundbeck A/S, priority 1999, dated 2007).

The structures appear in SMILES notation. Where a name gives a salt, the structure may show the parent alone. Read-outs that look alike come from different tables or passages of the source.

The target of data set [1] is T1, human Y5 receptor (Homo sapiens, UniProt Q15761).
T1 construct: expressed in transfected cells; host or cells: mouse fibroblast LM(tk-) cells, e.g. L-hY5-7 (ATCC CRL-11995)
T1 sequence (Q15761 1-445): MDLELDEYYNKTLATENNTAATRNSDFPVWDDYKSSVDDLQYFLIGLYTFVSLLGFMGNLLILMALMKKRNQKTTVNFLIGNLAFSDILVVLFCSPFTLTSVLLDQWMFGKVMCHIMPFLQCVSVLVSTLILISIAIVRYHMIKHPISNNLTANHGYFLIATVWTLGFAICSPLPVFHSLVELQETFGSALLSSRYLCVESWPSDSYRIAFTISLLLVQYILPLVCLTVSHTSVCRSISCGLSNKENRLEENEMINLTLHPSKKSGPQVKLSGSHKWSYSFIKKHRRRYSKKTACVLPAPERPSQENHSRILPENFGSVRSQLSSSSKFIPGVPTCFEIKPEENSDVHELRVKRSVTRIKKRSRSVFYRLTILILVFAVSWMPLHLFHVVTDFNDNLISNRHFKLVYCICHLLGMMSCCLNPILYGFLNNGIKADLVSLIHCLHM
Nature of the data set: Radioligand binding to membranes, cloned human Y5 receptor.
Procedure: (§1) Binding of the compounds of the present invention to human Y1, Y2, Y4, and Y5 receptors was evaluated using stably transfected 293 or LM(tk-) cells as described above.
(§2) Membranes were harvested from COS-7 cells 48 hours after transient transfection. Adherent cells were washed twice in ice-cold phosphate buffered saline (138 mM NaCl, 8.1 mM Na2HPO4, 2.5 mM KCl, 1.2 mM KH2PO4, 0.9 mM CaCl2, 0.5 mM MgCl2, pH 7.4) and lysed by sonication in ice-cold sonication buffer (20 mM Tris-HCl, 5 mM EDTA, pH 7.7). Large particles and debris were cleared by low speed centrifugation (200×g, 5 min, 4° C.). Membranes were collected from the supernatant fraction by centrifugation (32,000×g, 18 min, 4° C.), washed with ice-cold hypotonic buffer, and collected again by centrifugation (32,000×g, 18 min, 4° C.). The final membrane pellet was resuspended by sonication into a small volume of ice-cold binding buffer (˜1 ml for every 5 plates: 10 mM NaCl, 20 mM HEPES, 0.22 mM KH2PO4, 1.26 mM CaCl2, 0.81 mM MgSO4, pH 7.4). Protein concentration was measured by the Bradford method (Bradford, 1976) using Bio-Rad Reagent, with bovine serum albumin as a standard. Membranes were held on ice for up to one hour and used fresh, or flash-frozen and stored in liquid nitrogen.
(§3) Membranes were prepared similarly from 293, LM(tk-), and NIH-3T3 cells.
(§4) Membrane suspensions were diluted in binding buffer supplemented with 0.1% bovine serum albumin to yield an optimal membrane protein concentration so that ^125I-PYY (or alternative radioligand such as ^125I-NPY, ^125I-NYY3-36, or ^125I-[Leu^31Pro^34]PYY) bound by membranes in the assay was less than 10% of ^125I-PYY (or alternative radioligand) delivered to the sample (100,000 dpm/sample=0.08 nM for competition binding assays). ^125I-PYY (or alternative radioligand) and peptide competitors were also diluted to desired concentrations in supplemented binding buffer. Individual samples were then prepared in 96-well polypropylene microtiter plates by mixing ^125I-PYY (25 μL) (or alternative radioligand), competing peptides or supplemented binding buffer (25 μL), and finally, membrane suspensions (200 μL). Samples were incubated in a 30° C. water bath with constant shaking for 120 min. Incubations were terminated by filtration over Whatman GF/C filters (pre-coated with 1% polyethyleneimine and air-dried before use), followed by washing with 5 mL of ice-cold binding buffer. Filter-trapped membranes were impregnated with MeltiLex solid scintillant (Wallac, Turku, Finland) and counted for ^125I in a Wallac Beta-Plate Reader. Alternatively, incubations were carried out in GF/C filter plates (pre-coated with 1% polyethyleneimine and air-dried before use), followed by vacuum filtration and three washes of 300 μL of ice-cold binding buffer. 50 μL of UltimaGold (Packard) scintillant were added and counted for ^125I, in a Wallac MicroBeta Trilux. Non-specific binding was defined by 300 nM human NPY for all receptors except the Y4 subtypes; 100 nM human PP was used for the human Y4 and 100 nM rat PP for the rat Y4.

The target in a further data set is T2, human Y1 receptor (Homo sapiens, UniProt P25929).
T2 construct: expressed in transfected cells; host or cells: human embryonic kidney 293 cells, e.g. 293-hY1-5 (ATCC CRL-12121)
T2 sequence (P25929 1-384): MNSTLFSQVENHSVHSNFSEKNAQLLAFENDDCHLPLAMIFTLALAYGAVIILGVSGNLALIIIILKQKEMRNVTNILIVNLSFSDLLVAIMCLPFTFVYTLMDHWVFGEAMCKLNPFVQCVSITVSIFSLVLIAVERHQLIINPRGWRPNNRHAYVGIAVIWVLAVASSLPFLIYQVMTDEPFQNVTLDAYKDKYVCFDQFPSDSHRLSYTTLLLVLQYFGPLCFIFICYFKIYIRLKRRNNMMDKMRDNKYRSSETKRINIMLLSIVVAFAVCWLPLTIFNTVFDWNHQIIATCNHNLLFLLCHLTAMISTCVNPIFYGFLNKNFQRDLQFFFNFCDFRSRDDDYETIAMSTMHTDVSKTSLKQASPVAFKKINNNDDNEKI
Nature of the data set: Radioligand binding to membranes, cloned human Y1 receptor. The conditions noted are these: text b745; read-out: Ki (nM) NPY (Y1).

A further data set has as its target T3, human Y4 receptor (Homo sapiens, UniProt P50391).
T3 construct: expressed in transfected cells; host or cells: mouse fibroblast LM(tk-) cells, e.g. L-hY4-3 (ATCC CRL-11779)
Nature of the data set: Radioligand binding to membranes, cloned human Y4 receptor. The conditions noted are these: text b745; read-out: Ki (nM) NPY (Y4).

Data set [2] concerns the target T1, human Y5 receptor. Nature of the data set: Functional assay: radioimmunoassay of cAMP in stably transfected cells. The class given is cell-based. The conditions noted are these: Functional Antagonism Data, Table 7. The procedure: LM(tk-) cells stably transfected with the human Y5 receptor were routinely converted from an adherent monolayer to a viable suspension. Adherent cells were harvested with trypsin at the point of confluence, resuspended in a minimal volume of complete DMEM for a cell count, and further diluted to a concentration of 10^6 cells/ml in suspension media (10% bovine calf serum, 10% 10× Medium 199 (Gibco), 9 mM NaHCO3, 25 mM glucose, 2 mM L-glutamine, 100 units/ml penicillin/100 μg/ml streptomycin, and 0.05% methyl cellulose). The cell suspension was maintained in a shaking incubator at 37° C., 5% CO2 for 24 hours. Membranes harvested from cells grown in this manner may be stored as large, uniform batches in liquid nitrogen. Alternatively, cells may be returned to adherent cell culture in complete DMEM by distribution into 96-well microtiter plates coated with poly-D-lysine (0.01 mg/ml) followed by incubation at 37° C., 5% CO2 for 24 hours.
Stably transfected cells were seeded into 96-well microtiter plates and cultured until confluent. […] Cells were washed in […] buffered saline, or HBS (150 mM NaCl, 20 mM HEPES, 1 mM CaCl2, 5 mM KCl, 1 mM MgCl2, and 10 mM glucose) supplemented with 0.1% bovine serum albumin plus 5 mM theophylline and pre-equilibrated in the same solution for 20 min at 37° C. in 5% CO2. Cells were then incubated 5 min with 10 μM forskolin and various concentrations of receptor-selective ligands. The assay was terminated by the removal of HBS and acidification of the cells with 100 mM HCl. Intracellular cAMP was extracted and quantified with a modified version of a magnetic bead-based radioimmunoassay (Advanced Magnetics, Cambridge, Mass.). The final antigen/antibody complex was separated from free ^125I-cAMP by vacuum filtration through a PVDF filter in a microtiter plate (Millipore, Bedford, Mass.). Filters were punched and counted for ^125I, in a Packard gamma counter.

Another data set deals with T4, human Y2 receptor (Homo sapiens, UniProt P49146).
T4 sequence (P49146 1-381): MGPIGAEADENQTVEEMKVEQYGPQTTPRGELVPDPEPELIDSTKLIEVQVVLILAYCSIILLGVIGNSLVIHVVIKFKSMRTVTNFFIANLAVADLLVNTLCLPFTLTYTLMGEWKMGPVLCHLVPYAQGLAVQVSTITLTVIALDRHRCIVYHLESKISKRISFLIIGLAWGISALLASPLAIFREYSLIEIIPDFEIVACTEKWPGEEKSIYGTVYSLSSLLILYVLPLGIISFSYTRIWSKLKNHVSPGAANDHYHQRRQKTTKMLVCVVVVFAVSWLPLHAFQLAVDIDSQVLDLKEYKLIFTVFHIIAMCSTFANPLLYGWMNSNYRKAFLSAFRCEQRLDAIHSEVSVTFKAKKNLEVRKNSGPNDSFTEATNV
Nature of the data set: Radioligand binding to membranes, cloned human Y2 receptor.

The mark [3] stands for this setting: Table 6, read-out: Ki, nM hNPY-5.

T3 sequence (P50391 whole entry): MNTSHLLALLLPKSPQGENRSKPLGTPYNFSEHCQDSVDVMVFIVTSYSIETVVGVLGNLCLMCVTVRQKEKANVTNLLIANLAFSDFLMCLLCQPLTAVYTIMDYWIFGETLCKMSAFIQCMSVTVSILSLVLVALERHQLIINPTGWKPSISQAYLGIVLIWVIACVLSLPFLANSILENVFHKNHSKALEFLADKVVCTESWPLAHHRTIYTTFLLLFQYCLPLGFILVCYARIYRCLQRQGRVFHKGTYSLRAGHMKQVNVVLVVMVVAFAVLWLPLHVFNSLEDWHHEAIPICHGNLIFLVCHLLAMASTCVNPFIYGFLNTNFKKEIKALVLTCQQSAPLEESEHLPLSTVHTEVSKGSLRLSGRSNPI
Procedure for human Y1 receptor: as §1, §2, §3, §4
Procedure for human Y2 receptor: as §1, §2, §3, §4
Procedure for human Y4 receptor: as §1, §2, §3, §4

For the compound `CC(C)Nc1nc(Cl)nc(NCC2CCC(CNS(=O)(=O)c3cccc4ccccc34)CC2)n1` (centres unmarked) [Example 49, N1-{[4-({[4-chloro-6-(isopropylamino)-1,3,5-triazin-2-yl]amino}methyl)cyclohexyl]methyl}-1-naphthalenesulfonamide], the Ki (as a rule, a measure of affinity in units of concentration, obtained from inhibition or displacement) is 138 nM at human Y5 receptor [1] (Table 3, read-out: Ki (nM) hNPY-5); more than 100000 nM at human Y1 receptor; more than 100000 nM on human Y4 receptor; more than 100 µM on human Y2 receptor. Further, the antagonist equilibrium constant (Kb) (commonly the affinity of an antagonist, worked out from how it opposes an agonist) on human Y5 receptor [2] is 1000 nM.

As for `CNc1nc(NCC2CCC(CNS(=O)(=O)c3cccc4ccccc34)CC2)nc(NC(C)C)n1` (centres unmarked) [Example 1, N1-{[4-({[4-(Isopropylamino)-6-(methylamino)-1,3,5-triazin-2-yl]amino}methyl)cyclohexyl]methyl}-1-naphthalenesulfonamide], on human Y5 receptor [1] (Table 1, read-out: Ki (nM) hNPY-5), the Ki is 13 nM. On human Y5 receptor [2], the antagonist dissociation constant (Kb) was 200 nM.

Regarding `Cc1nc(-c2csc(N[C@H]3CC[C@H](CNS(=O)(=O)N(C)C)CC3)n2)c(C)s1` [Example 98, trans-N′-[(4-[4-(2,5-dimethyl-1,3-thiazol-4-yl)-1,3-thiazol-2-yl]aminocyclohexyl)methyl]-N,N-dimethylsulfamide], the Ki on human Y5 receptor [1] (Table 5, read-out: Ki, nM hNPY-5) turned out to be 1.5 nM. At human Y5 receptor [2], this compound gave a Kb of 3.98 nM.

For the compound `O=S(=O)(NCCCCCNc1nc(-c2ccccn2)cs1)c1ccccc1F` (as salt: chloride) [Example 61, 2-(5-(2-Fluorophenyl)sulfonylamino)pentylamino-4-(2-pyridyl)-thiazole hydrogen chloride], the melting point (as a rule, the temperature of the solid-liquid transition) lay in the range of 60 to 63 °C.

`Cc1noc(C)c1S(=O)(=O)NCCCCCNc1nc(-c2cccnc2)cs1` (as salt: chloride) [Example 71, 2-(5-(3,5-Dimethylisoxazol-4-yl)sulfonylamino)pentylamino-4-(3-pyridyl)thiazole hydrogen chloride] showed a melting point of 114 to 115 °C.

`O=S(=O)(N[C@H]1CC[C@H](CNc2nc(-c3cccnc3)cs2)CC1)c1ccccc1F` (as salt: chloride) [Example 86, trans-2-(4-(2-Fluorophenyl)sulfonylamino)cyclohexylmethyl-amino-4-(3-pyridyl)thiazole dihydrogen chloride] yielded a melting point of 141 to 142 °C.

Consider `CCNc1nc(NCC)nc(NCC2CCC(CNS(=O)(=O)c3cccs3)CC2)n1` (centres unmarked) [Example 37, N2-[4-([4,6-di(ethylamino)-1,3,5-triazin-2-yl]aminomethyl)cyclohexyl]methyl-2-thiophenesulfonamide], for which the Ki on human Y5 receptor [1] (Table 2, read-out: Ki (nM) hNPY-5) came out at 55 nM. In addition, the Kb at human Y5 receptor [2] is 158 nM.

Turning to `O=S(=O)(NCCCCCNc1nc(-c2ccccn2)cs1)c1cccs1` (as salt: chloride) [Example 60, 4-(2-Pyridyl)-2-(5-(2-thienyl)sulfonylaminopentyl)-amino-thiazole hydrogen chloride], the melting point fell in the range of 75 to 77 °C.

`NS(=O)(=O)NCCCCCNc1nc(-c2ccccn2)cs1` (as salt: chloride) [Example 69, 2-(5-(Aminosulfonylamino)pentyl)amino-4-(2-pyridyl)thiazole hydrogen chloride] had a melting point of 68 to 70 °C.

`O=S(=O)(NCCCCCNc1nc(-c2ccccn2)cs1)c1ccc(F)c(F)c1` (as salt: chloride) [Example 64, 2-(5-(3,4-Difluorophenyl)sulfonylamino)pentylamino-4-(2-pyridyl)thiazole hydrogen chloride] gave a melting point of 65 to 68 °C.

Take `O=S(=O)(NC[C@H]1CC[C@H](Nc2nc3c(s2)CCSc2ccccc2-3)CC1)c1cccc2cccnc12` [Example 157, N8-{[4-(4,5-Dihydrobenzo[2,3]thiepino[4,5-d][1,3]thiazol-2-ylamino)cyclohexyl]methyl}-8-quinolinesulfonamide]: the Ki on human Y5 receptor [1] (setting [3]) was 5.7 nM. At human Y5 receptor [2], the Kb is 20 nM.

Turning to `CS(=O)(=O)NC[C@H]1CC[C@H](Nc2nc3c(s2)CCSc2ccccc2-3)CC1` [Example 104, N-{[4-(4,5-Dihydrobenzo[2,3]thiepino[4,5-d][1,3]thiazol-2-ylamino)cyclohexyl]methyl}-methanesulfonamide], on human Y5 receptor [1] (setting [3]), the inhibition constant Ki was 6.8 nM. For the same compound, at human Y5 receptor [2], the Kb was 2.51 nM.

Take `COc1ccc(C)cc1S(=O)(=O)NCCCCCNc1nc(-c2cccnc2)cs1` (as salt: chloride) [Example 72, 2-(5-(2-Methoxy-5-methyl)phenylsulfonylamino)pentylamino-4-(3-pyridyl)thiazole hydrogen chloride]: the melting point was in the range of 119 to 120 °C.

Take `CCS(=O)(=O)NCCCCCNc1nc(-c2ccccn2)cs1` (as salt: chloride) [Example 67, 2-(5-(Ethylsulfonylamino)pentyl)amino-4-(2-pyridyl)thiazole hydrogen chloride]: the melting point was 49 to 51 °C.
